How the values were obtained:
[1] = cited from earlier work
[2] = In vitro drug dissolution, USP Type II apparatus; assay type: physicochemical
Description: In vitro drug dissolution studies 01 In vitro dissolution studies of the pure dolutegravir (PD) and its aquasomal formulations (F1 to F6) were carried out using USP-Type II dissolution apparatus. 900 ml of pH 6.8 phosphate buffer was used as dissolution media and temperature was maintained at 37° C.±0.5° C. with paddle rotation speed at 50 rpm. Aliquots of 5 ml were withdrawn at various intervals and were replaced with same quantity of fresh dissolution medium to maintain the sink condition. Samples were filtered through wattman filter paper and analysed UV—Vis spectrophotometrically at 259.80 nm. The dissolution experiments were conducted in triplicate and the cumulative percentage of drug release was calculated. […] Dissolution efficiency (DE) values were calculated as per Khan^1 and T50 (time taken for 50% dissolution) values were recorded from the dissolution profiles.
A comparative in vitro drug release study was performed in pH 6.8 phosphate buffer for pure dolutegravir sodium (PD) and all designed formulations (F1-F6), the data was shown in Table 7. The dissolution experiments were conducted in triplicate. Dissolution efficiency (DE5) values were calculated as per Khan^1. T50 (time taken for 50% dissolution) values were recorded from the dissolution profiles.
The dissolution data of formulations PD and dolutegravir aquasomes were fitted into mathematical models such as zero order, first order and Hixson Crowell models kinetics and the plots were shown in Table No: 8. The release kinetics of pure drug (PD) and dolutegravir aquasomes follows zero order as well as Hixson Crowell model because the values of regression coefficient obtained for zero order release profiles are higher as compared to first order kinetics. […] The cube root dissolution rate constant (KH) of Hixson Crowell values of PD is 0.124 and optimized formulation F6 is 0.713. During dissolution, the radius of the particle, mass of the particle was changed. […]

[3] = cited from earlier work; remark: listed apart in the source
[4] = system: herpes simplex virus (HSV) infected vero cells; assay: In vitro MTT antiviral assay; assay type: cell-based; conditions: 0.01 to 100 μ/mL
human plasma proteins = conditions: cited from earlier work
UGT1A1 = target: T1, UGT1A1 (Homo sapiens, UniProt P22309); conditions: cited from earlier work
T1 sequence (P22309 26-533): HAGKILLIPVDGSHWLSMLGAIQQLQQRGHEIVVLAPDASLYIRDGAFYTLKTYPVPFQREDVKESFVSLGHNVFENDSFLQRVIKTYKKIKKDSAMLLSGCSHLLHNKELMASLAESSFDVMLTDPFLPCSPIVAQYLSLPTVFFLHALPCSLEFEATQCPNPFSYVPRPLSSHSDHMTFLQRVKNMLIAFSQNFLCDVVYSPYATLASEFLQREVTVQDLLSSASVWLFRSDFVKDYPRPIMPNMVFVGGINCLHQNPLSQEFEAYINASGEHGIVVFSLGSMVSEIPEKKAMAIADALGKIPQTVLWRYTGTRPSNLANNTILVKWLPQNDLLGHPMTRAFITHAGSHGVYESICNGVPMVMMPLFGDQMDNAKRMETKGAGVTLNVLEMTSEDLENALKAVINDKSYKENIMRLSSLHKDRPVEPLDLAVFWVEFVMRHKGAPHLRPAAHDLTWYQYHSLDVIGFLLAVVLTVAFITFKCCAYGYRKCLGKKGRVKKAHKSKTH

[5] = Preformulation study: solubility of dolutegravir sodium in water; assay type: physicochemical; conditions: preformulation studies
Description: Preformulation studies of dolutegravir sodium were performed to know the physical appearance and organoleptic properties.

- T50 (time taken for 50% dissolution) [2]: 38.5 h
- % of Dolutegravir Sodium Release ([2]; 0 hr, pH 6.8 phosphate buffer): 0%
- % of Dolutegravir Sodium Release ([2]; 0.5 hr, pH 6.8 phosphate buffer): 7.38 ± 0.12%
- % of Dolutegravir Sodium Release ([2]; 1 hr, pH 6.8 phosphate buffer): 13.45 ± 0.14%
- % of Dolutegravir Sodium Release ([2]; 2 hr, pH 6.8 phosphate buffer): 15.27 ± 0.12%
- % of Dolutegravir Sodium Release ([2]; 3 hr, pH 6.8 phosphate buffer): 15.79 ± 0.19%
- % of Dolutegravir Sodium Release ([2]; 4 hr, pH 6.8 phosphate buffer): 16.92 ± 0.12%
- % of Dolutegravir Sodium Release ([2]; 5 hr, pH 6.8 phosphate buffer): 17.82 ± 0.09%
- % of Dolutegravir Sodium Release ([2]; 6 hr, pH 6.8 phosphate buffer): 18.33 ± 0.10%
- % of Dolutegravir Sodium Release ([2]; 7 hr, pH 6.8 phosphate buffer): 20.13 ± 0.12%
- % of Dolutegravir Sodium Release ([2]; 8 hr, pH 6.8 phosphate buffer): 20.27 ± 0.43%
- % of Dolutegravir Sodium Release ([2]; 9 hr, pH 6.8 phosphate buffer): 22.27 ± 0.12%
- % of Dolutegravir Sodium Release ([2]; 10 hr, pH 6.8 phosphate buffer): 22.45 ± 0.14%
- % of Dolutegravir Sodium Release ([2]; 11 hr, pH 6.8 phosphate buffer): 25.23 ± 0.13%
- % of Dolutegravir Sodium Release ([2]; 12 hr, pH 6.8 phosphate buffer): 26.45 ± 0.22%
- DE5 (dissolution efficiency) ([2]; at 5 h, pH 6.8 phosphate buffer): 14.80%
- Hixson Crowell (KH) ([2]; cube root dissolution rate constant): 0.124 mg^1/3/hr
- First order (K1) ([2]; dissolution rate constant): 0.018 h⁻¹
- Zero order (Ko) ([2]; dissolution rate constant): 1.566 mg/h
- Correlation Coefficient Values (r) First order ([2]; drug release kinetics fit): 0.845
- Correlation Coefficient Values (r) Hixson Crowell ([2]; drug release kinetics fit): 0.443
- Correlation Coefficient Values (r) Zero order ([2]; drug release kinetics fit): 0.812
- solubility [5]: 1.6 µg/mL
SMILES: C[C@@H]1CCO[C@H]2Cn3cc(C(=O)NCc4ccc(F)cc4F)c(=O)c(O)c3C(=O)N12 [PD, sodium (4R,12aS)-9-{[(2,4-difluorophenyl)methyl]carbamoyl}-4-methyl-6,8-dioxo-3,4,6,8,12,12a-hexahydro-2H-pyrido[1′, 2′:4,5]pyrazino[2,1-b][1,3]oxazin-7-olate]
- Cmax ([1]; absorption): 7.97-14.70 μm
- tmax ([1]; absorption): 0.5 to 2 h
- Clearance ([1]; in vivo): 1 L/h
- Half-life ([1]; in vivo): 14 h
- drug eliminated from urine ([1]; in vivo): 32%
- drug eliminated through feces ([1]; in vivo): 53%
- Solubility: soluble in water ([3]; at 25° C.): 3500 µg/mL
- Particle Size ([3]; drug profile): 5 microns
- IC50 [4]: 57.9 ± 4.6 µg/mL
- protein bound to human plasma proteins (human plasma proteins): > 98.9%
- primarily metabolized by (UGT1A1): UGT1A1

Reference: patent US20230310442A1, “POLY HYDROXY OLIGOMER COATED DOLUTEGRAVIR AQUASOMES AND METHOD THEREOF” (priority 2020, published 2023)
